Values quoted from earlier work, collected in patent US20060147527A1, “Controlled release preparations comprising tramadol and topiramate” (CILAG AG, priority 2002, published 2006).

Tested on: Chung model of post-nerve constriction injury
Settings: each drug alone

COc1cccc(C2(O)CCCCC2CN(C)C)c1 (single isomer, unassigned) [tramadol, (1R,2R or 1S,2S)-2-[(dimethylamino)methyl]-1-(3-methoxyphenyl)-cyclohexanol]
maximal effect reached as the dose is escalated: 100 % MPE

CC1(C)O[C@@H]2[C@@H](CO[C@@]3(COS(N)(=O)=O)OC(C)(C)O[C@@H]23)O1 [topiramate, 2,3:4,5-bis-O-(1-methylethylidene)-β-D-fructopyranose sulfamate]
maximal effect reached as the dose is escalated: 100 % MPE
